Assay results published in patent US20060116390A1, “Hepatitis c virus inhibitors” (priority 2003, published 2006).
Like-named read-outs stand apart in the source and are kept apart here.

System: HCV proteins in Rep5.1 cells (replicon cell line)
Test: Inhibitory activity of HCV: cell-based ELISA in replicon cell line Rep5.1 (decrease of HCV proteins)
Parameters: species or system hepatitis C virus
Details: Rep5.1 cells, 72 hours with drug
Outline: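 Rep5.1 replicon cells (5000/well, DMEM-10 with 500 μg/ml G418) were given serially diluted drug 4 h after seeding. After 72 h, cells were fixed in methanol/acetone and HCV proteins detected by cell-based ELISA using replicon-specific patient plasma antibodies. IC50 is the concentration giving 50% protein decrease versus the no-drug control.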

[1] = Hepatitis C virus, 72 h, concentration at which 50% of HCV proteins was decreased, Table 2, read-out: IC50
[2] = Hepatitis C virus, 72 h, decrease of HCV proteins measured by HCV antibody, Table 1, read-out: Level (IC50 values classified)
[3] = concentration at which 50% of HCV proteins was decreased, Table 2, read-out: IC50

| SMILES | IC50 [1] [nM] | IC50 [2] [nM] | IC50 [3] [nM] |
| --- | --- | --- | --- |
| CC1=C(C(=O)OCCc2ccc(Cl)cc2)C(CO)NC(=S)N1 (stereo not drawn) [35″, 4-hydroxymethyl-6-methyl-2-thioxo-1,2,3,4-tetrahydro-pyrimidine-5-carboxylic acid 2-(4-chloro-phenyl)-ethyl ester] | 1600 | 1000 to 10000 |  |
| CC1=C(C(=O)OCCCCc2ccsc2)C(CO)NC(=S)N1 (stereo not drawn) [25″, 4-hydroxymethyl-6-methyl-2-thioxo-1,2,3,4-tetrahydro-pyrimidine-5-carboxylic acid 4-thiophen-3-yl-butyl ester] | 2000 | 1000 to 10000 |  |
| CC1=C(C(=O)OCCCc2ccco2)C(CF)NC(=S)N1 (stereo not drawn) [Compound 270, 4-fluoromethyl-6-methyl-2-thioxo-1,2,3,4-tetrahydro-pyrimidine-5-carboxylic acid 3-furan-2-yl-propyl ester] | 5000 | 1000 to 10000 |  |
| CC1=C(C(=O)OCc2ccc(C)cc2C)CNC(=S)N1 [Compound 122, 6-methyl-2-thioxo-1,2,3,4-tetrahydro-pyrimidine-5-carboxylic acid 2,4-dimethyl-benzyl ester] | 800 | < 1000 |  |
| COc1ccccc1CCOC(=O)C1=C(C)NC(=S)NC1CO (stereo not drawn) [9″, 4-hydroxymethyl-6-methyl-2-thioxo-1,2,3,4-tetrahydro-pyrimidine-5-carboxylic acid 2-(2-methoxy-phenyl)-ethyl ester] | 20000 | 10000 to 20000 |  |
| CC1=C(C(=O)OCc2cc3c(cc2[N+](=O)[O-])OCO3)CNC(=S)N1 [Compound 140, 6-methyl-2-thioxo-1,2,3,4-tetrahydro-pyrimidine-5-carboxylic acid 6-nitro-benzo[1,3]dioxol-5-ylmethyl ester] | 13000 | 10000 to 20000 |  |
| CCOc1ccc(CCOC(=O)C2=C(C)NC(=S)NC2CO)cc1 (stereo not drawn) [60″, 4-hydroxymethyl-6-methyl-2-thioxo-1,2,3,4-tetrahydro-pyrimidine-5-carboxylic acid 2-(4-ethoxy-phenyl)-ethyl ester] | 2500 | 1000 to 10000 |  |
| CCCOc1ccc(COC(=O)C2=C(C)NC(=S)NC2)cc1 [Compound 78, 6-methyl-2-thioxo-1,2,3,4-tetrahydro-pyrimidine-5-carboxylic acid 4-propoxy-benzyl ester] | 1000 | < 1000 |  |
| CC1=C(C(=O)OCCc2cc(C)cc(C)c2)C(CO)NC(=S)N1 (stereo not drawn) [37″, 4-hydroxymethyl-6-methyl-2-thioxo-1,2,3,4-tetrahydro-pyrimidine-5-carboxylic acid 2-(3,5-dimethyl-phenyl)-ethyl ester] | 800 | < 1000 |  |
| CC1=C(C(=O)OCc2cc(Cl)cc(Cl)c2)C(CF)NC(=S)N1 (stereo not drawn) [89′, 4-fluoromethyl-6-methyl-2-thioxo-1,2,3,4-tetrahydro-pyrimidine-5-carboxylic acid 3,5-dichloro-benzyl ester] | 400 | < 1000 |  |
| CC1=C(C(=O)OCc2cc(F)cc(F)c2)CNC(=S)N1 [Compound 134, 6-methyl-2-thioxo-1,2,3,4-tetrahydro-pyrimidine-5-carboxylic acid 3,5-difluoro-benzyl ester] | 600 | < 1000 |  |
| CC1=C(C(=O)OCC2=Cc3ccccc3S2(=O)=O)CNC(=S)N1 [Compound 127, 6-methyl-2-thioxo-1,2,3,4-tetrahydro-pyrimidine-5-carboxylic acid 1,1-dioxo-1H-11^6-benzo[b]thiophen-2-ylmethyl ester] |  |  | 3500 |
| CC1=C(C(=O)OCc2sccc2-n2cccc2)CNC(=S)N1 [Compound 220, 6-methyl-2-thioxo-1,2,3,4-tetrahydro-pyrimidine-5-carboxylic acid 3-pyrrol-1-yl-thiophen-2-ylmethyl ester] | 800 | < 1000 |  |
| CC(C)=CCCC(C)=CCOC(=O)C1=C(C)NC(=S)NC1 [Compound 56, 6-methyl-2-thioxo-1,2,3,4-tetrahydro-pyrimidine-5-carboxylic acid 3,7-dimethyl-octa-2,6-dienyl ester] | < 500 | < 1000 |  |
| CC1=C(C(=O)OCCc2ccc(F)c(C)c2)C(CO)NC(=S)N1 (stereo not drawn) [66″, 4-hydroxymethyl-6-methyl-2-thioxo-1,2,3,4-tetrahydro-pyrimidine-5-carboxylic acid 2-(4-fluoro-3-methyl-phenyl)-ethyl ester] | 700 | < 1000 |  |
| CC1=C(C(=O)OCCCc2ccsc2)C(CF)NC(=S)N1 (stereo not drawn) [53′, 4-fluoromethyl-6-methyl-2-thioxo-1,2,3,4-tetrahydro-pyrimidine-5-carboxylic acid 3-thiophen-3-yl-propyl ester] | 18000 | 10000 to 20000 |  |
| CCN(c1ccc(CCOC(=O)C2=C(C)NC(=S)NC2CO)cc1[N+](=O)[O-])C1CC1 (stereo not drawn) [94″, 4-Hydroxymethyl-6-methyl-2-thioxo-1,2,3,4-tetrahydro-pyrimidine-5-carboxylic acid 2-[4-(cyclopropyl-ethyl-amino)-3-nitro-phenyl]-ethyl ester] | 800 | < 1000 |  |

| SMILES | IC50 [1] [nM] | IC50 [2] [nM] | IC50 [3] [nM] |
| --- | --- | --- | --- |
| CC1=C(C(=O)OCC(Br)=CBr)CNC(=S)N1 [Compound 193, 6-methyl-2-thioxo-1,2,3,4-tetrahydro-pyrimidine-5-carboxylic acid 2,3-dibromo-allyl ester] | 1000 | < 1000 |  |
| CC1=C(C(=O)OCCCc2cccnc2)CNC(=S)N1 [Compound 158, 6-methyl-2-thioxo-1,2,3,4-tetrahydro-pyrimidine-5-carboxylic acid 3-pyridin-3-yl-propyl ester] | > 100000 | > 20000 |  |
| COc1ccc(Br)cc1COC(=O)C1=C(C)NC(=S)NC1 [Compound 185, 6-methyl-2-thioxo-1,2,3,4-tetrahydro-pyrimidine-5-carboxylic acid 5-bromo-2-methoxy-benzyl ester] | 400 | < 1000 |  |
| CCOC(=O)CCCC1=C(C(=O)OCc2ccccc2)CNC(=S)N1 [Compound 169, 6-(3-ethoxycarbonyl-propyl)-2-thioxo-1,2,3,4-tetrahydro-pyrimidine-5-carboxylic acid benzyl ester] | 9000 | 1000 to 10000 |  |
| CC1=C(C(=O)OCCSc2nc3ccccc3s2)CNC(=S)N1 [Compound 224, 6-methyl-2-thioxo-1,2,3,4-tetrahydro-pyrimidine-5-carboxylic acid 2-(benzothiazol-2-ylsulfanyl)-ethyl ester] | 700 | < 1000 |  |
| CC1=C(C(=O)OCc2cccc(SC(F)(F)F)c2)C(CF)NC(=S)N1 (stereo not drawn) [72′, 4-fluoromethyl-6-methyl-2-thioxo-1,2,3,4-tetrahydro-pyrimidine-5-carboxylic acid 3-trifluoromethylsulfanyl-benzyl ester] | < 400 | < 1000 |  |
| CC1=C(C(=O)OCc2ccsc2)C(CF)NC(=S)N1 (stereo not drawn) [Compound 253, 4-fluoromethyl-6-methyl-2-thioxo-1,2,3,4-tetrahydro-pyrimidine-5-carboxylic acid thiophen-3-ylmethyl ester] | 13000 | 10000 to 20000 |  |
| CC1=C(C(=O)OCc2ccc3nc(C)oc3c2)CNC(=S)N1 [Compound 256, 6-methyl-2-thioxo-1,2,3,4-tetrahydro-pyrimidine-5-carboxylic acid 2-methyl-benzoxazol-6-ylmethyl ester] | 3400 | 1000 to 10000 |  |
| O=C(OCc1ccccc1)C1=C(CCc2ccccc2)NC(=S)NC1 [Compound 19, 6-phenethyl-2-thioxo-1,2,3,4-tetrahydro-pyrimidine-5-carboxylic acid benzyl ester] | 1600 | < 1000 |  |
| CC1=C(C(=O)OCc2ccc(S(C)(=O)=O)cc2)CNC(=S)N1 [Compound 74, 6-methyl-2-thioxo-1,2,3,4-tetrahydro-pyrimidine-5-carboxylic acid 4-methanesulfonyl-benzyl ester] | > 100000 | > 20000 |  |
| CC1=C(C(=O)OCc2ccccc2C(F)(F)F)C(CF)NC(=S)N1 (stereo not drawn) [37′, 4-fluoromethyl-6-methyl-2-thioxo-1,2,3,4-tetrahydro-pyrimidine-5-carboxylic acid 2-trifluoromethyl-benzyl ester] | 600 | < 1000 |  |
| COc1ccc(Cl)cc1COC(=O)C1=C(C)NC(=S)NC1 [Compound 132, 6-methyl-2-thioxo-1,2,3,4-tetrahydro-pyrimidine-5-carboxylic acid 5-chloro-2-methoxy-benzyl ester] | 400 | < 1000 |  |
| CCCCC(C)OC(=O)C1=C(C)NC(=S)NC1 (stereo not drawn) [Compound 39, 6-methyl-2-thioxo-1,2,3,4-tetrahydro-pyrimidine-5-carboxylic acid 1-methyl-pentyl ester] | 500 | < 1000 |  |
| CC#CCCOC(=O)C1=C(C)NC(=S)NC1 [Compound 160, 6-methyl-2-thioxo-1,2,3,4-tetrahydro-pyrimidine-5-carboxylic acid pent-3-inyl ester] |  |  | 12000 |
| CC1=C(C(=O)OCCCc2ccsc2)CNC(=S)N1 [Compound 243, 6-methyl-2-thioxo-1,2,3,4-tetrahydro-pyrimidine-5-carboxylic acid 3-thiophen-3-yl-propyl ester] | < 400 | < 1000 |  |
| CC1=C(C(=O)OCc2cccc(F)c2)CNC(=S)N1 [Compound 83, 6-methyl-2-thioxo-1,2,3,4-tetrahydro-pyrimidine-5-carboxylic acid 3-fluoro-benzyl ester] | 1000 | < 1000 |  |
| COc1ccc(COC(=O)C2=C(C)NC(=S)NC2)cc1 [Compound 8, 6-methyl-2-thioxo-1,2,3,4-tetrahydro-pyrimidine-5-carboxylic acid 4-methoxy-benzyl ester] | 3000 | 1000 to 10000 |  |
